Assay [1] has as its system male Dunkin-Hartley Guinea pigs. The experiment in a line: cough strokes after aerosol administration of the medicaments. It counts as in vivo, Guinea pig. Particulars: aerosol with 1% (w/v) aqueous solution for 10 minutes, compared with saline aerosol controls.
Assay [2] has the same test system. The experiment in a line: capsaicin aerosol-induced cough after intravenous administration. It counts as in vivo, Guinea pig. Particulars: for recorded cough strokes / inhibition of the response to the tussigenic stimulus: 10 mg/kg intravenous, 0.0045% capsaicin aerosol 5 minutes after administration; for recorded cough strokes: during the 4 minute aerosol; for inhibition of the response to the tussigenic stimulus: strokes recorded during 4 minute aerosol. The method, then:
The tests were carried out on male Dunkin-Hartley Guinea pigs (4-6 animals for group), which were subjected to aerosol of a 0.0045% (p/v) capsaicin aqueous solution [Lavezzo A., Pulm. Pharmacol., 5, 143-147, 1992; Gallico L. et al, Br. J. Pharmacol., 112, 795-800. 1994] 5 minutes after intravenous administration of 0.5 ml of a (−)-1,2-cyclohexylidene-3-(4-phenyl-piperazin-1-yl)-propane-1,2-diol fumarate solution (DF 1689A, 10 mg/kg) compared with 0.5 ml of a levodropropizine solution, pH 4.5 (10 mg/kg) and with an equal volume of saline solution (control).

Turning to `OCC(O)CN1CCN(c2ccccc2)CC1` (single isomer, unassigned; (-)) [levodropropizine, (−) 3-(4-phenyl-piperazin-1-yl)-1,2-propanediol, reference compound], in assay [1], the “inhibitory effect on number of cough strokes” value is given as “about 35%”. Besides, in assay [2], the recorded cough strokes turned out to be 5.17±0.54 and the “inhibition of the response to the tussigenic stimulus” value is listed as 43.6%.

Take `O=C(O)/C=C/C(=O)O.c1ccc(N2CCN(C[C@H]3COC4(CCCCC4)O3)CC2)cc1` [DF 1689A, S(−)-1,2-cyclohexylidene-3-(4-phenyl-piperazin-1-yl)propane-1,2-diol fumarate]: the “inhibitory effect on number of cough strokes” value in assay [1] is recorded as “about 35%”. Besides, in assay [2], the recorded cough strokes is 4.83±0.54. Further, the “inhibition of the response to the tussigenic stimulus” value in assay [2] is 47.3%. Moreover, the “inhibition on the tussigen stimulus induced by capsaicin aerosol” value in assay [2] (15 minutes after the intravenous administration) was 34.6%; in assay [2] (30 minutes after the intravenous administration), 27.3%.

Source of the values: patent US6835734B2, “1,3-dioxolanes with antitussive activity” (Dompé S.p.A., priority 2000, dated 2004).
